Where a name gives a salt, the structure may show the parent alone. Read-outs that look alike come from different tables or passages of the source.

Experiment [1] concerns the target T1, SARS-CoV-2 PLpro (nsp3 1564–1878) (Severe acute respiratory syndrome coronavirus 2, UniProt P0DTD1). In words: biochemical. Further details: FRET-quenched peptide (Pro3) cleavage by PLpro, 10 min pre-incubation, slope over 20 min, normalised to no-compound control. Particulars: read-out: % of control remaining.
Experiment [2] concerns the target T1, SARS-CoV-2 PLpro (nsp3 1564–1878). In words: biochemical. Further details: FRET-quenched peptide (Pro3) cleavage by PLpro, 10 min pre-incubation, slope over 20 min, normalised to no-compound control. To be noted: read-out: % of control remaining. The source holds these as a separate data set.

As to `C=CCc1ccccc1OCC(O)CNC(C)C` (centres unmarked) [Alprenolol (hydrochloride)], in experiment [1] (Well no.=6327, high concentration screen), the remaining activity at 3.75 µM was determined as 103%. Also, the remaining activity at 1.25 µM in experiment [2] (Well no.=6327, low concentration screen) was 102%.
For the compound `c1ccc(CNCc2ccc(CN3CCCNCCNCCCNCC3)cc2)nc1` [AMD 3465 (hexahydrobromide)], the remaining activity at 3.75 µM in experiment [1] (Well no.=7245, high concentration screen) was determined as 87.4%; in experiment [1] (Well no.=8419, high concentration screen), 92.2%. The remaining activity at 1.25 µM is 90.9% in experiment [2] (Well no.=7245, low concentration screen) and 98.5% in experiment [2] (Well no.=8419, low concentration screen).
As for `N#Cc1c(-c2ccccc2)no[n+]1[O-]` [4-Phenyl-3-furoxancarbonitrile], the remaining activity at 3.75 µM in experiment [1] (Well no.=998, high concentration screen) turned out to be 97.8%. Besides, in experiment [2] (Well no.=998, low concentration screen), the remaining activity at 1.25 µM was determined as 97.8%.
With `CC1(C)S[C@@H]2[C@H](NC(=O)[C@H](NC(=O)N3CCNC3=O)c3ccccc3)C(=O)N2[C@H]1C(=O)O` [Azlocillin sodium salt], in experiment [1] (Well no.=5356, high concentration screen), the remaining activity at 3.75 µM was 93.9%. Also, the remaining activity at 1.25 µM in experiment [2] (Well no.=5356, low concentration screen) was found to be 98.5%.
Turning to `Cc1ccc(NC(=O)Nc2cc(-c3ccccc3-c3nn[nH]n3)ccc2N(CC(C)C)CC(C)C)cc1` [IDO-IN-2], in experiment [1] (Well no.=8123, high concentration screen), the remaining activity at 3.75 µM came out at 94.6%. In experiment [2] (Well no.=8123, low concentration screen), the remaining activity at 1.25 µM is 99.9%.
`C[C@H](Cc1ccc2c(c1)OC(C(=O)O)(C(=O)O)O2)NC[C@H](O)c1cccc(Cl)c1` [CL 316,243]: in experiment [1] (Well no.=276, high concentration screen), the remaining activity at 3.75 µM is 101%. Besides, in experiment [2] (Well no.=276, low concentration screen), the remaining activity at 1.25 µM was 96.9%.
Take `COc1cccc(OC)c1C(=O)N[C@@H]1C(=O)N2[C@@H]1SC(C)(C)[C@@H]2C(=O)O` [Methicillin (sodium salt)]: the remaining activity at 3.75 µM in experiment [1] (Well no.=7448, high concentration screen) was 99.6%. For the same compound, the remaining activity at 1.25 µM in experiment [2] (Well no.=7448, low concentration screen) was determined as 100%.
In the case of `S=C=Nc1cccc(NC(=S)NCCCCNC(=S)Nc2cccc(N=C=S)c2)c1` [MRS 2578], in experiment [1] (Well no.=7275, high concentration screen), the remaining activity at 3.75 µM came to 95.2%. Moreover, the remaining activity at 1.25 µM stood at 93.1% in experiment [2] (Well no.=4797, low concentration screen) and 95% in experiment [2] (Well no.=7275, low concentration screen).
Regarding `CCOC(=O)C1=C[C@]2(CC)CCCN3CCc4c(n1c1ccccc41)[C@@H]32` [Vinpocetine], the remaining activity at 3.75 µM in experiment [1] (Well no.=1432, high concentration screen) worked out at 102%; in experiment [1] (Well no.=3228, high concentration screen) it was 108%. Moreover, the remaining activity at 1.25 µM in experiment [2] (Well no.=1432, low concentration screen) came to 99%; in experiment [2] (Well no.=2158, low concentration screen) it was 98.7%; in experiment [2] (Well no.=3228, low concentration screen), 103%.
For `Clc1ccc(C(Cn2ccnc2)OCc2ccsc2Cl)c(Cl)c1` (centres unmarked) [Tioconazole], the remaining activity at 3.75 µM in experiment [1] (Well no.=1956, high concentration screen) was 104%. In addition, the remaining activity at 1.25 µM in experiment [2] (Well no.=1956, low concentration screen) came to 103%.
For `CCCCS(=N)(=O)CCC(N)C(=O)O` [L-Buthionine-sulfoximine], the remaining activity at 3.75 µM in experiment [1] (Well no.=315, high concentration screen) is 97.7%. The remaining activity at 1.25 µM in experiment [2] (Well no.=315, low concentration screen) stood at 97.6%.
With `Clc1ccc2nsnc2c1NC1=NCCN1` [Tizanidine HCl], the remaining activity at 3.75 µM in experiment [1] (Well no.=4851, high concentration screen) came out at 99.7%. In addition, the remaining activity at 1.25 µM in experiment [2] (Well no.=4851, low concentration screen) amounted to 101%.
Consider `CCCCCCCC/C=C\CCCCCCCC(=O)O` [Oleic Acid], for which the remaining activity at 3.75 µM in experiment [1] (Well no.=848, high concentration screen) was found to be 101%; in experiment [1] (Well no.=7347, high concentration screen) it was 104%. Also, in experiment [2] (Well no.=848, low concentration screen), the remaining activity at 1.25 µM turned out to be 102%.
As to `CN(C)CC/C=C1/c2ccccc2Sc2ccc(Cl)cc21` [Chlorprothixene], the remaining activity at 3.75 µM in experiment [1] (Well no.=5345, high concentration screen) amounted to 93.5%; in experiment [1] (Well no.=6221, high concentration screen), 99.3%. Also, the remaining activity at 1.25 µM amounted to 97.4% in experiment [2] (Well no.=5345, low concentration screen) and 104% in experiment [2] (Well no.=6221, low concentration screen).
Regarding `CCc1cc(Cl)c(OC)c(C(=O)NC[C@@H]2CCN(CC)C2)c1O` [S-(-)-Eticlopride hydrochloride], in experiment [1] (Well no.=417, high concentration screen), the remaining activity at 3.75 µM is 101%. Further, in experiment [2] (Well no.=417, low concentration screen), the remaining activity at 1.25 µM is 102%.
On to `COC(=O)C(C)(N)Cc1ccc(O)cc1` (racemic) [alpha-Methyl-DL-tyrosine methyl ester hydrochloride], for which the remaining activity at 3.75 µM in experiment [1] (Well no.=1068, high concentration screen) is 96.5%. Also, the remaining activity at 1.25 µM in experiment [2] (Well no.=1068, low concentration screen) was 97%.
`CSCC[C@H](NC(=O)[C@H](Cc1ccccc1)NC(=O)CNC(=O)CNC(=O)[C@@H](N)Cc1ccc(O)cc1)C(=O)O` [Tyr-Gly-Gly-Phe-Met-OH]: in experiment [1], the remaining activity at 3.75 µM is 101%. The remaining activity at 1.25 µM in experiment [2] came out at 98.2%.
As to `Nc1ccn([C@@H]2O[C@H](CO)[C@@H](O)C2(F)F)c(=O)n1` [Gemcitabine HCl (Gemzar)], in experiment [1] (Well no.=5059, high concentration screen), the remaining activity at 3.75 µM is 107%. In experiment [2] (Well no.=5059, low concentration screen), the remaining activity at 1.25 µM amounted to 104%.
For `O=C(O)[C@H]1Cc2ccccc2CN1` [(R)-1,2,3,4-Tetrahydro-3-isoquinolinecarboxylic acid], the remaining activity at 3.75 µM in experiment [1] (Well no.=8608, high concentration screen) was 101%. Moreover, the remaining activity at 1.25 µM in experiment [2] (Well no.=8608, low concentration screen) stood at 102%.
With `CC(C)CN(C[C@@H](O)[C@H](Cc1ccccc1)NC(=O)O[C@H]1CCOC1)S(=O)(=O)c1ccc(N)cc1` [Amprenavir], the remaining activity at 3.75 µM was found to be 102% in experiment [1] (Well no.=2242, high concentration screen) and 95.7% in experiment [1] (Well no.=8648, high concentration screen). Moreover, the remaining activity at 1.25 µM in experiment [2] (Well no.=2242, low concentration screen) is 101%; in experiment [2] (Well no.=8648, low concentration screen), 94.1%.
Take `N#CC(C#N)=C(N)/C(C#N)=C/c1cc(O)c(O)c(O)c1` [Tyrphostin 51]: the remaining activity at 3.75 µM in experiment [1] (Well no.=1324, high concentration screen) turned out to be 95.8%. Besides, in experiment [2] (Well no.=1324, low concentration screen), the remaining activity at 1.25 µM was found to be 96.8%.
On to `O=c1c2ccccc2nc2n1CCc1c-2[nH]c2ccccc12` [Rutaecarpine], for which the remaining activity at 3.75 µM in experiment [1] (Well no.=1396, high concentration screen) came out at 99.4%; in experiment [1] (Well no.=3709, high concentration screen) it was 101%. The remaining activity at 1.25 µM in experiment [2] (Well no.=1396, low concentration screen) turned out to be 96.2%; in experiment [2] (Well no.=3709, low concentration screen) it was 100%.
Turning to `Cn1c(=O)c(-c2c(Cl)cccc2Cl)cc2cnc(Nc3ccc(N4CCOCC4)cc3)nc21` [PD173952], in experiment [1] (Well no.=5415, high concentration screen), the remaining activity at 3.75 µM stood at 108%. For the same compound, in experiment [2] (Well no.=5415, low concentration screen), the remaining activity at 1.25 µM was 103%.
Turning to `O=C1N=C(O)NC1(c1ccccc1)c1ccccc1` [Phenytoin sodium], the remaining activity at 3.75 µM in experiment [1] (Well no.=403, high concentration screen) was found to be 104%. The remaining activity at 1.25 µM in experiment [2] (Well no.=403, low concentration screen) stood at 104%.
`Nc1ccn([C@H]2C[C@H](O)[C@@H](COP(=O)(O)OP(=O)(O)OP(=O)(O)O)O2)c(=O)n1` [Deoxycytidine triphosphate]: the remaining activity at 3.75 µM in experiment [1] (Well no.=7355, high concentration screen) came to 100%; in experiment [1] (Well no.=7870, high concentration screen), 102%. Further, the remaining activity at 1.25 µM was determined as 99.9% in experiment [2] (Well no.=7355, low concentration screen) and 101% in experiment [2] (Well no.=7870, low concentration screen).
On to `C[C@@]1(F)[C@H](O)[C@@H](CO)O[C@H]1n1ccc(N)nc1=O` [PSI-6130], for which, in experiment [1] (Well no.=7764, high concentration screen), the remaining activity at 3.75 µM is 100%. Also, in experiment [2] (Well no.=7764, low concentration screen), the remaining activity at 1.25 µM stood at 107%.
As for `O=c1ccc2cc3ccoc3cc2o1` [7H-furo[3,2-g]chromen-7-one], in experiment [1] (Well no.=5431, high concentration screen), the remaining activity at 3.75 µM came to 104%. For the same compound, in experiment [2] (Well no.=5431, low concentration screen), the remaining activity at 1.25 µM was 101%.
Take `CCCCCCCCCCC/C=C\CCCCC(=O)O` [6(Z)-Octadecenoic acid]: in experiment [1] (Well no.=4316, high concentration screen), the remaining activity at 3.75 µM was 98.8%. The remaining activity at 1.25 µM in experiment [2] (Well no.=4316, low concentration screen) was determined as 103%.

Source of the values: publication PMC8286840, “Identifying SARS-CoV-2 antiviral compounds by screening for small molecule inhibitors of Nsp3 papain-like protease” (Biochemical Journal, 2021).
